Results from US20240374529A1, “PHARMACEUTICAL COMPOSITION COMPRISING POLYSACCHARIDE” (HUNG, MIEN-CHIE, priority 2021, published 2024).

Key:
Format in all cases: cell-based
4T1 = experiment: Cytotoxicity, triple negative breast cancer cell line 4T1; details: Mus musculus
CFPAC-1 = experiment: Cytotoxicity, pancreatic cancer cell line CFPAC-1; details: Homo sapiens
BxPC3 = experiment: Cytotoxicity, pancreatic cancer cell line BxPC3; details: Homo sapiens, BXPC-3
SKOV3 = experiment: Cytotoxicity, ovarian cancer cell line SKOV3; details: Homo sapiens, SK-OV-3
MDA-MB-231 = experiment: Cytotoxicity, triple negative breast cancer cell line MDA-MB-231; details: Homo sapiens

For `CC(=O)O[C@@]12CO[C@@H]1C[C@H](O)[C@@]1(C)C(=O)[C@H](O)C3=C(C)[C@@H](OC(=O)[C@H](O)[C@@H](NC(=O)OC(C)(C)C)c4ccccc4)C[C@@](O)([C@@H](OC(=O)c4ccccc4)[C@H]21)C3(C)C` [DTX, docetaxel], the IC50 (4T1) was 0.0291 µM, the IC50 (CFPAC-1) was 0.0388 µM and the IC50 (BxPC3) was 0.0229 µM. It also gave an IC50 (SKOV3) of 0.0101 µM and an IC50 (MDA-MB-231) of 0.0187 µM.
